Test results as given in the NIST ThermoML archive (doi:10.1021/je500845d).
Numbers after ± are expanded uncertainties.

How the values were obtained:
[1] = Crystal; DTA
[2] = Molar enthalpy of transition or fusion; details: Crystal; DSC

In the case of `O=C(O)C(O)c1ccccc1Br` (stereo not given) [2-(2-bromophenyl)-2-hydroxyacetic acid], the Normal melting temperature [1] is reported as 86.8 ± 1 °C and the “Molar enthalpy of transition or fusion” value [2] is reported as 5.33 ± 0.311 kcal/mol.
In the case of `O=C(O)C(O)c1cccc(Br)c1` (stereo not given) [2-(3-bromophenyl)-2-hydroxyacetic acid], the Normal melting temperature [1] is reported as 119.6 ± 1 °C and the “Molar enthalpy of transition or fusion” value [2] is reported as 7.19 ± 0.311 kcal/mol.
With `O=C(O)C(O)c1ccc(Br)cc1` (stereo not given) [2-(4-bromophenyl)-2-hydroxyacetic acid] the Normal melting temperature [1] was 118.1 ± 1 °C and the “Molar enthalpy of transition or fusion” value [2] was 4.25 ± 0.311 kcal/mol.
For `O=C(O)C(O)c1ccc(Cl)cc1F` (stereo not given) [2-(4-chloro-2-fluorophenyl)-2-hydroxyacetic acid], the Normal melting temperature [1] was 90.5 ± 1 °C and the “Molar enthalpy of transition or fusion” value [2] was 4.23 ± 0.311 kcal/mol.
With `O=C(O)C(O)c1ccc(Cl)cc1` (stereo not given) [2-(4-chlorophenyl)-2-hydroxyacetic acid] the Normal melting temperature [1] was 120.1 ± 1 °C and the “Molar enthalpy of transition or fusion” value [2] was 3.87 ± 0.311 kcal/mol.
With `O=C(O)C(O)c1ccc(F)cc1Cl` (stereo not given) [2-chloro-4-fluoromandelic acid] the Normal melting temperature [1] was 97.6 ± 1 °C and the “Molar enthalpy of transition or fusion” value [2] was 4.35 ± 0.311 kcal/mol.
With `O=C(O)C(O)c1ccccc1I` (stereo not given) [2-hydroxy-2-(2-iodophenyl)acetic acid] the Normal melting temperature [1] was 109.0 ± 1 °C and the “Molar enthalpy of transition or fusion” value [2] was 5.98 ± 0.311 kcal/mol.
In the case of `O=C(O)C(O)c1cccc(I)c1` (stereo not given) [2-hydroxy-2-(3-iodophenyl)acetic acid], the Normal melting temperature [1] is reported as 97.0 ± 1 °C and the “Molar enthalpy of transition or fusion” value [2] is reported as 5.88 ± 0.311 kcal/mol.
In the case of `O=C(O)C(O)c1ccc(I)cc1` (stereo not given) [2-hydroxy-2-(4-iodophenyl)acetic acid], the Normal melting temperature [1] is reported as 142.2 ± 1 °C and the “Molar enthalpy of transition or fusion” value [2] is reported as 7.27 ± 0.311 kcal/mol.
With `Cc1cccc(C(O)C(=O)O)c1` (stereo not given) [2-hydroxy-2-(m-tolyl)acetic acid] the Normal melting temperature [1] was 92.4 ± 1 °C and the “Molar enthalpy of transition or fusion” value [2] was 6.12 ± 0.311 kcal/mol.
With `Cc1ccccc1C(O)C(=O)O` (stereo not given) [2-hydroxy-2-(o-tolyl)acetic acid] the Normal melting temperature [1] was 103.8 ± 1 °C and the “Molar enthalpy of transition or fusion” value [2] was 5.14 ± 0.311 kcal/mol.
For `Cc1ccc(C(O)C(=O)O)cc1` (stereo not given) [2-hydroxy-2-(p-tolyl)acetic acid], the Normal melting temperature [1] was 143.8 ± 1 °C and the “Molar enthalpy of transition or fusion” value [2] was 6.12 ± 0.311 kcal/mol.
For `O=C(O)[C@@H](O)c1ccccc1Br` [(S)-2-(2-bromophenyl)-2-hydroxyacetic acid], the Normal melting temperature [1] was 119.4 ± 1 °C and the “Molar enthalpy of transition or fusion” value [2] was 5.35 ± 0.311 kcal/mol.
In the case of `O=C(O)[C@@H](O)c1ccc(F)cc1Cl` [(S)-2-(2-chloro-4-fluorophenyl)-2-hydroxyacetic acid], the Normal melting temperature [1] is reported as 132.8 ± 1 °C and the “Molar enthalpy of transition or fusion” value [2] is reported as 4.8 ± 0.311 kcal/mol.
With `O=C(O)[C@@H](O)c1cccc(Br)c1` [(S)-2-(3-bromophenyl)-2-hydroxyacetic acid] the Normal melting temperature [1] was 103.1 ± 1 °C and the “Molar enthalpy of transition or fusion” value [2] was 5.5 ± 0.311 kcal/mol.
In the case of `O=C(O)[C@@H](O)c1ccc(Br)cc1` [(S)-2-(4-bromophenyl)-2-hydroxyacetic acid], the Normal melting temperature [1] is reported as 127.6 ± 1 °C and the “Molar enthalpy of transition or fusion” value [2] is reported as 4.11 ± 0.311 kcal/mol.
With `O=C(O)[C@@H](O)c1ccc(Cl)cc1F` [(S)-2-(4-chloro-2-fluorophenyl)-2-hydroxyacetic acid] the Normal melting temperature [1] was 107.8 ± 1 °C and the “Molar enthalpy of transition or fusion” value [2] was 3.61 ± 0.287 kcal/mol.
For `O=C(O)[C@@H](O)c1ccc(Cl)cc1` [(S)-2-(4-chlorophenyl)-2-hydroxyacetic acid], the Normal melting temperature [1] was 119.6 ± 1 °C and the “Molar enthalpy of transition or fusion” value [2] was 6.48 ± 0.311 kcal/mol.
For `Cc1cccc([C@H](O)C(=O)O)c1` [(S)-2-hydroxy-2-(m-tolyl)acetic acid], the Normal melting temperature [1] was 109.7 ± 1 °C and the “Molar enthalpy of transition or fusion” value [2] was 6.98 ± 0.311 kcal/mol.
With `Cc1ccc([C@H](O)C(=O)O)cc1` [(S)-2-hydroxy-2-(p-tolyl)acetic acid] the Normal melting temperature [1] was 131.5 ± 1 °C and the “Molar enthalpy of transition or fusion” value [2] was 5.35 ± 0.311 kcal/mol.
